Data on seven compounds can be found in patent US8987288B2, “Heterocyclic aminoberbamine derivatives, the preparation process and use thereof” (Hangzhou Bensheng Pharmaceutical Co., Ltd., priority 2010, dated 2015).

Converted amounts (≈) assume the structure as drawn. Read-outs that look alike come from different tables or passages of the source.

One data set concerns MG63 (osteosarcomas). Put plainly: Solid tumor cell growth inhibition, MTT, 72 h. The data set is classed as cell-based, human. From the text: (§1) Human solid tumor cell lines: HepG2 (human hepatocellular carcinoma, HCC), A549 (human lung cancer), MCF-7 (breast cancer), PANC-1 (pancreatic, cancer), PC-3 (prostate cancer). MG63 (osteosarcomas). AGS (gastric cancer), Huh7 (human hepatoma cell), Becap37 (human breast cancer cell), Hela (human cervical cancer cell), RKO (human colon adenocarcinoma cell), SW620 (human colon adenocarcinoma cell), SW480 (human colon cancer cell), MGC 803 (human gastric cancer cell). Obtaining 4000 well-growing human solid tumor cells and inoculating them into wells of a 96-well cell culture plate. The culture medium is DMEM High Glucose cell culture medium containing 10% fetal bovine serum. Alter adding the berbamine derivatives of different concentration and mixing uniformly, the plate is placed in a carbon dioxide cell incubator (5% CO2) at 37° C. and incubated for 72 hours. Then the viable cell concentration is determined by the MTT method, and the cell viability (%) alter drug treatment is calculated. In this experiment, the cell viability of control group (not treated with any compound) is set as 100%.

A further data set concerns MCF-7 (breast cancer). Description: Solid tumor cell growth inhibition, MTT, 72 h. The data set is classed as cell-based, human.
Excerpt: as §1

The test system of data set [1] is K562 leukemia cell line (chronic myeloid leukemia, CML). Description: Leukemia cell growth inhibition, MTT, 72 h. The data set is classed as cell-based, human. An excerpt: (§2) Leukemia cell lines; human K562 leukemia cell line (chronic myeloid leukemia, CML), K562/adr (drug-resistant chronic myeloid leukemia (CML), NB4 (acute promyelocytic leukemia, AML), Kasumi-1 (acute myeloid leukemia M2 type, AML-M2), Jurkat (acute lymphoblastic leukemia, ALL), H9 (acute lymphoblastic leukemia, ALL). Obtaining 6000 well-growing leukemia cells and inoculating them into wells of a 96-well cell culture plate. The culture medium is the 1640 cell culture medium containing 10% fetal bovine serum. After adding of the berbamine derivatives of different concentrations and mixing uniformly, the plate is placed in a carbon dioxide cell incubator (5% CO2) at 37° C. and incubated for 72 hours. Then the viable cell concentration is determined by the MTT method.

The subject of data set [2] is Jurkat (acute lymphoblastic leukemia, ALL). Put plainly: Leukemia cell growth inhibition, MTT, 72 h. The data set is classed as cell-based, human.
Excerpt: as §2

The test system of data set [3] is K562/adr (drug-resistant chronic myeloid leukemia). Description: Leukemia cell growth inhibition, MTT, 72 h. The data set is classed as cell-based, human.
Excerpt: as §2

The next data set concerns AGS (gastric cancer). Description: Solid tumor cell growth inhibition, MTT, 72 h. The data set is classed as cell-based. The conditions noted are these: Homo sapiens, read-out: half inhibiting concentration (IC50 value) AGS.
Excerpt: as §1

For data set [4], the system named is Huh7 (human hepatoma cell). Description: Solid tumor cell growth inhibition, MTT, 72 h. The conditions noted are these: Huh-7, read-out: half inhibiting concentration (IC50 value) Huh7. The data set is classed as cell-based.
Excerpt: as §1

The test system of data set [5] is Hela (human cervical cancer cell). Put plainly: Solid tumor cell growth inhibition, MTT, 72 h. The data set is classed as cell-based. Conditions: read-out: half inhibiting concentration (IC50 value) Hela.
Excerpt: as §1

The subject of data set [6] is RKO (human colon adenocarcinoma cell). Put plainly: Solid tumor cell growth inhibition, MTT, 72 h. The data set is classed as cell-based. Conditions: read-out: half inhibiting concentration (IC50 value) RKO.
Excerpt: as §1

Data set [7] concerns Becap37 (human breast cancer cell). Put plainly: Solid tumor cell growth inhibition, MTT, 72 h. The data set is classed as cell-based. The conditions noted are these: read-out: half inhibiting concentration (IC50 value) Becap37.
Excerpt: as §1

In data set [8] the test system is HepG2 (human hepatocellular carcinoma, HCC). Description: Solid tumor cell growth inhibition, MTT, 72 h. The data set is classed as cell-based.
Excerpt: as §1

Data set [9] has as its system MGC 803 (human gastric cancer cell). Put plainly: Solid tumor cell growth inhibition, MTT, 72 h. The data set is classed as cell-based.
Excerpt: as §1

The subject of data set [10] is SW620 (human colon adenocarcinoma cell). Put plainly: Solid tumor cell growth inhibition, MTT, 72 h. The data set is classed as cell-based. Conditions: SW-620, read-out: half inhibiting concentration (IC50 value) SW620.
Excerpt: as §1

The next data set has as its system A549 (human lung cancer). Description: Solid tumor cell growth inhibition, MTT, 72 h. The data set is classed as cell-based.
Excerpt: as §1

Data set [11] deals with PANC-1 (pancreatic cancer). Description: Solid tumor cell growth inhibition, MTT, 72 h. The data set is classed as cell-based. The conditions noted are these: Homo sapiens, read-out: half inhibiting concentration (IC50 value) PANC-1.
Excerpt: as §1

A further data set has as its system PC-3 (prostate cancer). Description: Solid tumor cell growth inhibition, MTT, 72 h. The data set is classed as cell-based. The conditions noted are these: Homo sapiens, read-out: half inhibiting concentration (IC50 value) PC-3.
Excerpt: as §1

The test system of data set [12] is SW480 (human colon cancer cell). Put plainly: Solid tumor cell growth inhibition, MTT, 72 h. The data set is classed as cell-based.
Excerpt: as §1

Data set [13] deals with human leukemia Jurkat cells. Conditions: cited from earlier work.
Data set [14] deals with H9 (acute lymphoblastic leukemia, ALL). Description: Leukemia cell growth inhibition, MTT, 72 h. The data set is classed as cell-based. The conditions noted are these: Homo sapiens, read-out: half inhibiting concentration (IC50 value) H9.
Excerpt: as §2

Data set [15] relates to NB4 (acute promyelocytic leukemia, AML). Description: Leukemia cell growth inhibition, MTT, 72 h. The data set is classed as cell-based. The conditions noted are these: Homo sapiens, read-out: half inhibiting concentration (IC50 value) NB4.
Excerpt: as §2

In data set [16] the test system is Kasumi-1 (acute myeloid leukemia M2 type). Description: Leukemia cell growth inhibition, MTT, 72 h. The data set is classed as cell-based. Conditions: Homo sapiens, read-out: half inhibiting concentration (IC50 value) Kasumi-1.
Excerpt: as §2

In data set [17] the test system is normal human peripheral blood leucocytes. Conditions: 0.5 ug/mL to 10 ug/mL; cited from earlier work.
Data set [18] has as its system RPMI 8226 (multiple myeloma). Description: Multiple myeloma cell growth inhibition, MTT, 72 h. The data set is classed as cell-based, human. As to the method: Multiple myeloma and lymphoma cell lines: RPM18226 (multiple myeloma). Obtaining 6000 well-growing abovesaid tumor cells and inoculating them into wells of a 96-well cell culture plate. The culture medium is the 1640 cell culture medium containing 10% fetal bovine serum. After adding the berbamine derivatives of different concentrations and mixing uniformly, the plate is placed in a carbon dioxide cell incubator (5% CO2) at 37° C. and incubated for 72 hours. Then the viable cell concentration is determined by the MTT method.

The next data set concerns the target CaM (Homo sapiens, UniProt P0DP23). The conditions noted are these: higher than that of berbamine; cited from earlier work.
The test system of data set [19] is red cell membrane CaM-independent Ca2++Mg2+ ATPase. Conditions: stronger than that of berbamine; cited from earlier work.

In the case of `COc1cc2c3cc1Oc1c(OC)c(OC)cc4c1[C@@H](Cc1ccc(O)c(c1)Oc1ccc(cc1)C[C@@H]3N(C)CC2)N(C)CC4` [BBM, 6,6′,7-trimethoxy-2,2′-dimethylberbaman-12-ol], the IC50 in the data set with MG63 (osteosarcomas) (Homo sapiens, MG-63, 72 hours, MTT, read-out: half inhibiting concentration (IC50 value) MG63) stood at 9.18 mg/L (≈ 15.1 µM); in the data set on MCF-7 (breast cancer) (Homo sapiens, MCF7, 72 hours, MTT, read-out: half inhibiting concentration (IC50 value) MCF-7), 20.6 mg/L (≈ 33.8 µM); in data set [1] (Homo sapiens, K562, 72 hours, MTT, read-out: half inhibiting concentration (IC50 value) K562), 3 mg/L (≈ 4.93 µM); in data set [2] (Homo sapiens, Jurkat, 72 hours, MTT, read-out: half inhibiting concentration (IC50 value) Jurkat), 1.9 mg/L (≈ 3.12 µM); in data set [3] (Homo sapiens, K562/Adr, 72 hours, MTT, read-out: half inhibiting concentration (IC50 value) K562adr) it was 3.53 mg/L (≈ 5.8 µM); in the data set with AGS (gastric cancer), 5.84 mg/L (≈ 9.59 µM). The IC50 in data set [4] came out at 7.63 mg/L (≈ 12.5 µM); in data set [5] it was 5.04 mg/L (≈ 8.28 µM); in data set [6], 2.34 mg/L (≈ 3.84 µM); in [7] it was 7.31 mg/L (≈ 12 µM); in data set [8] (Homo sapiens, HepG2, 72 hours, MTT, read-out: half inhibiting concentration (IC50 value) Hepg2), 6.67 mg/L (≈ 11 µM); in data set [9] (Homo sapiens, MGC-803, 72 hours, MTT, read-out: half inhibiting concentration (IC50 value) MGC803), 4.96 mg/L (≈ 8.15 µM). The IC50 was found to be 1.1 mg/L (≈ 1.81 µM) in data set [10]; 5.38 mg/L (≈ 8.84 µM) in the data set on A549 (human lung cancer) (Homo sapiens, A549, 72 hours, MTT, read-out: half inhibiting concentration (IC50 value) A549); 12.7 mg/L (≈ 20.9 µM) in [11]; 3.7 mg/L (≈ 6.08 µM) in the data set on PC-3 (prostate cancer); 5.74 mg/L (≈ 9.43 µM) in data set [12] (Homo sapiens, SW480, 72 hours, MTT, read-out: half inhibiting concentration (IC50 value) SW480); 5.04 mg/L (≈ 8.28 µM) in data set [14]. For the same compound, the IC50 was 3 mg/L (≈ 4.93 µM) in [15]; 1.3 mg/L (≈ 2.14 µM) in [16]; 1.17 mg/L (≈ 1.92 µM) in data set [18] (Homo sapiens, RPMI-8226, 72 hours, MTT, read-out: half inhibiting concentration (IC50 value) RPMI 8226). Besides, the cell viability rate is listed as 93.69% in data set [13] (drug concentration 0.5 ug/mL) and 14.85% in data set [13] (drug concentration 10 ug/mL). Besides, in data set [17], the “cytotoxicity on normal human peripheral blood leucocytes” value is reported as “no obvious cytotoxicity”.
Take `COc1cc2c3cc1Oc1c(OC)c(OC)cc4c1C(Cc1ccc(OCCCNc5ncc(C(=O)Nc6c(C)cccc6Cl)s5)c(c1)Oc1ccc(cc1)CC3N(C)CC2)N(C)CC4` (stereo not drawn) [Compound (2), 12-O-(3-(5-(2-chloro-6-methyl-phenyl-carbamoyl)-thiazol-2-amino)-propyl)-berbamine]: the “improvement of anti-MG63 (osteosarcoma) cell activity compared with berbamine” value with MG63 (osteosarcomas) (vs berbamine) was “more than 12 fold”.
Take `COc1cccc(NC(=O)c2sc(NCCCOc3ccc4cc3Oc3ccc(cc3)CC3c5cc(c(OC)cc5CCN3C)Oc3c(OC)c(OC)cc5c3C(C4)N(C)CC5)nc2C)c1` (stereo not drawn) [Compound (3), 12-O-(3-(5-(3-methoxy-phenyl-carbamoyl)-4-methyl-thiazol-2-amino)-propyl)-Berbamine]: in data set [1] (vs berbamine), the “improvement of anti-K562 activity compared with berbamine” value was determined as 8 fold. In [3] (vs berbamine), the “improvement of anti-K562 activity compared with berbamine (second mention, K562/adr meant)” value was 8 fold.
For the compound `COc1cccc(NC(=O)c2cnc(NCCCOc3ccc4cc3Oc3ccc(cc3)CC3c5cc(c(OC)cc5CCN3C)Oc3c(OC)c(OC)cc5c3C(C4)N(C)CC5)cn2)c1` (stereo not drawn) [Compound (4), 12-O-(3-(5-(3-methoxy-phenyl-carbamoyl)-pyrazin-2-amino)-propyl)-berbamine], the “improvement of anti-MCP-7 (breast cancer) cell activity compared with berbamine” value in the data set on MCF-7 (breast cancer) (vs berbamine) is “more than 26 fold”. In [2] (vs berbamine), the “improvement of anti-Jurkat acute lymphoblastic leukemia activity compared with berbamine” value was “more than 13 fold”. Moreover, the “improvement of anti-HepG2 cell activity compared with berbamine” value in data set [8] (vs berbamine) was “about 9 fold”. The “improvement of anti-MGC 803 cell activity compared with berbamine” value in [9] (vs berbamine) was “more than 8 fold”. In addition, in data set [12] (vs berbamine), the “improvement of anti-SW480 cell activity compared with berbamine” value is on record as “more than 6 fold”. For the same compound, in data set [18] (vs berbamine), the “improvement of anti-RPMI8226 (multiple myeloma) cell line activity compared with berbamine” value is “more than 117 fold”.
Regarding `COc1cccc(NC(=O)c2ccc(NCCCOc3ccc4cc3Oc3ccc(cc3)CC3c5cc(c(OC)cc5CCN3C)Oc3c(OC)c(OC)cc5c3C(C4)N(C)CC5)nc2)c1` (stereo not drawn) [Compound (6), 12-O-(3-(5-(3-methoxy-phenyl-carbamoyl)-pyridin-2-amino)-propyl)-berbamine], the “improvement of anti-A549 (human lung cancer) cell activity compared with berbamine” value in the data set with A549 (human lung cancer) (vs berbamine) was “more than 14 fold”.
For `CCOCCCCOc1ccc2cc1Oc1ccc(cc1)C[C@H]1c3cc(c(OC)cc3CCN1C)Oc1c(OC)c(OC)cc3c1[C@@H](C2)N(C)CC3` [EBB, [O-(4-ethoxy)-butyl]-berbamine], the “specific coefficient as CaM antagonist relative to berbamine” value on CaM is reported as 6.5 times.
Regarding O-Dansyl berbamine [DB], the “inhibitory activity on red cell membrane CaM-independent Ca2++Mg2+ ATPase relative to berbamine” value in data set [19] is recorded as 25 times.
